Test results from patent publication US5550131A, “2-piperazinone compounds and their use” (Takeda Chemical Industries, Ltd., priority 1993, dated 1996).

Key:
[1] = tested on: guinea pig platelet aggregation by ADP; experiment: Determination of platelet aggregation in vitro (by ADP), guinea pig platelet rich plasma; assay type: cell-based; conditions: Cavia porcellus, guinea pig PRP, n = 3, ADP 0.6-1 μM, 37° C., read-out: Inhibition of platelet aggregation by ADP, IC50, guinea pigs
Method: (§1) Method […] The sodium citrate--supplemented blood was centrifuged at 950 rpm for 10 minutes and 2,000 rpm for 10 minutes respectively at room temperature to obtain platelet rich plasma (PRP) and platelet poor plasma (PPP). PRP was diluted with PPP to adjust the number of platelets to be 500,000/μl. Platelet aggregation measured spectroscopically in accordance with Born's method (Nature 194: 927, 1962) using an aggregometer (HEMA TRACER VI Toa Iyo Denshi). The PRP (250 μl) was incubated at 37° C. for 2 minutes, to which was then added 25 μl of a test drug solution. Two minutes later, 25 μl of an agent for causing agglutination. The effect of the test drug was shown by the inhibition rate of the maximum aggregation rate of the test group against that of the control group. ADP was used in the minimum concentration (0.6-1 μM) capable of obtaining maximum aggregation. Inhibitory effect on platelet aggregation by ADP of the compounds of Working Examples

[2] = tested on: human platelet aggregation by ADP; experiment: Determination of platelet aggregation in vitro (by ADP), human platelet rich plasma; assay type: cell-based; conditions: human PRP, n = 3, ADP 0.6-1 μM, 37° C., read-out: Inhibition of platelet aggregation by ADP, IC50, human
Method: as §1

[3] = tested on: activated platelets of guinea pigs; experiment: Binding experiment in vitro: specific binding of 125I-fibrinogen to activated platelets of guinea pigs; set-up: species or system guinea pig; conditions: n=3; 125I-fibrinogen 0.1 μM; ADP 5×10^-5 M; 2 hours at room temperature; read-out: IC50 value against the specific binding of 125I-fibrinogen to activated platelets of guinea pigs
Method: Method Washed platelets were prepared from sodium citrate--supplemented blood of guinea pig, which were suspended in a Hepes Tyrode solution (pH 7.5) to adjust the number of platelets to be 500,000/μl. To 70 μl of this suspension was added 10 μl of an ADP solution (final concentration: 5×10^-5 M), and the mixture was left standing for 15 minutes at room temperature. To the mixture were added a solution of the test drug and 80 μl of a ^125 I-fibrinogen solution (final concentration: 0.1 μM), which was left standing for 2 hours at room temperature. Onto a 20% sucrose buffer solution was overlaid 100 μl of the reaction mixture, which was subjected to centrifuge at 3,000 rpm to separate platelet-adhesive ^125 I-fibrinogen from non-adhesive one. The radioactivity of the platelet-adhesive ^125 I-fibrinogen was determined. From the value obtained from the test groups against specific binding of the control group (processed with the buffer solution), the adhesion inhibiting ratio was determined. Action of the compound of Working Example 1 against the specific binding of ^125 I-fibrinogen to activated platelets of guinea pigs.

[4] = tested on: platelet aggregation caused by ADP; experiment: Ex vivo platelet aggregation experiment (ADP) after oral administration to guinea pigs; assay type: in vivo, guinea pig
Method: Method After fasting overnight, guinea pigs were orally administered with a test drug solution (2 ml/kg). Blood was collected from the animals, under anesthesia with pentobarbital, after 1, 4 and 24 hours respectively. By the method described above, PRP was prepared and the platelet aggregation caused by ADP was measured. The rate of inhibition of aggregation was determined by the aggregation rate obtained in the test groups against that obtained in the control. The test drug was administered orally as a solution in distilled water. ADP aggregation inhibiting action by the compound of working Example 1 in guinea pigs

| IC50 [1] [nM] | IC50 [2] [nM] | SMILES | further results |
| --- | --- | --- | --- |
| 38 | 17 | COC(=O)C[C@H]1C(=O)N(CC(=O)O)CCN1C(=O)[C@H](Cc1ccc(O)cc1F)NC(=O)c1ccc(C(=N)N)cc1 [Working Example 23] |  |
| 37 | 20 | COC(=O)C[C@H]1C(=O)N(CC(=O)O)CCN1C(=O)[C@H](Cc1ccc(O)cc1)NC(=O)c1ccc(C(=N)N)cc1.Cl [Working Example 1, (S)-4-(4-Amidinobenzoyl-L-Tyrosyl)-3-Methoxycarbonylmethyl-2-Oxopiperazine-1-Acetic Acid Hydrochloride] | IC50 [3]: 2.7 nM; ADP aggregation inhibition rate ([4]; 3 mg/kg p.o., after 1 hour, n=4): 100%; ADP aggregation inhibition rate ([4]; 3 mg/kg p.o., after 4 hour, n=4): 100%; ADP aggregation inhibition rate ([4]; 3 mg/kg p.o., after 24 hour, n=3): 100% |
| 34 | 40 | CCCOc1ccc(C[C@H](NC(=O)c2ccc(C(=N)N)cc2)C(=O)N2CCN(CC(=O)O)C(=O)[C@@H]2CC(=O)OC)cc1 [Working Example 5] |  |
| 15 | 10 | COC(=O)C[C@H]1C(=O)N(CC(=O)O)CCN1C(=O)[C@H](Cc1ccc(OC)cc1)NC(=O)c1ccc(C(=N)N)cc1 [Working Example 3, (S)-4-(4-Amidinobenzoyl-O-Methyl-L-Tyrosyl)-3-Methoxycarbonylmethyl-2-Oxopiperazine-1 -Acetic Acid] | ADP aggregation inhibition rate ([4]; 1 mg/kg p.o., after 1 hour, n=6): 95%; ADP aggregation inhibition rate ([4]; 1 mg/kg p.o., after 4 hour, n=6): 100% |
| 38 | 26 | COC(=O)C[C@H]1C(=O)N(CC(=O)O)CCN1C(=O)[C@H](Cc1ccc(F)cc1)NC(=O)c1ccc(C(=N)N)cc1 [Working Example 21] |  |
| 47 | 18 | COC(=O)C[C@H]1C(=O)N(CC(=O)O)CCN1C(=O)[C@H](Cc1ccc(O)c(F)c1)NC(=O)c1ccc(C(=N)N)cc1 [Working Example 22] |  |
| 46 | 24 | COC(=O)C[C@H]1C(=O)N(CC(=O)O)CCN1C(=O)C(Cc1ccc(O)c(O)c1)NC(=O)c1ccc(C(=N)N)cc1 (mixture of isomers) [Working Example 24] |  |
| 18 | 12 | COC(=O)C[C@H]1C(=O)N(CC(=O)O)CCN1C(=O)[C@H](Cc1ccc(OC)cc1)NC(=O)c1ccc(CCN)cc1 [Working Example 31] |  |
| 120 |  | CCOc1ccc(C[C@H](NC(=O)c2ccc(C(=N)N)cc2)C(=O)N2CCN(CC(=O)O)C(=O)[C@@H]2CC(=O)OC)cc1 [Working Example 4, (S)-4-(4-amidinobenzoyl-O-ethyl-L-tyrosyl)-3-methoxycarbonylmethyl-2-oxopiperazine-1-acetic acid] |  |
| 26 | 20 | C=CCOc1ccc(C[C@H](NC(=O)c2ccc(C(=N)N)cc2)C(=O)N2CCN(CC(=O)O)C(=O)[C@@H]2CC(=O)OC)cc1 [Working Example 18] |  |
